In US9155795B2, “CXCR4 receptor compounds” (Anchor Therapeutics, Inc., priority 2010, dated 2015):
Like-named read-outs stand apart in the source and are kept apart here. Blank lines part the entries; values can stand above or below the molecule they belong to. Where a SMILES comes first, the peptide text is derived from it. [ ]: non-standard residue; d: D form. The star is where a group is joined. Palmitoyl = CCCCCCCCCCCCCCCC(=O)*; Hyp = O=C(O)[C@@H]1C[C@@H](O)CN1; Nle = CCCC[C@H](N)C(=O)O

Columns and labels:
[1] = Pharmacokinetic analysis in mice (plasma, LC/MS); format: in vivo; settings: for bioavailability / MRT inf / Tmax / half-life: male, mouse, in vivo, 2.5 umol/kg; for MRT inf / Tmax / half-life: sc
Description: To determine the pharmacokinetic profile of the CXCR4 modulators, compounds were administered as single subcutaneous injection to 6-8 week old male mice at doses of either […] (three or four mice/group). […] Dosing of 0.5 μmol/kg or 1 μmol/kg were used for intravenous dosing. […] Mice were sacrificed and blood samples collected at 15 minutes, 30 minutes, 1 hour, 2 hours, 4 hours, 8 hours, and 24 hours after dosing. The concentration of compound in plasma samples was analyzed by LC/MS according to the method below.
To this, 5 μL of the analyte compound in AcN:H2O:FA (70:30:1%) of 100 μM concentration was added to get 5 μM concentration.
Serial calibration standards in plasma or plasma samples were transferred to clean labeled tubes and mixed with 3 volumes of acetonitrile with internal standard, tolbutamide, in order to precipitate proteins. The mixtures were vortexed and centrifuged at 12000 RPM (15320 g) for 10 minutes. Supernatants were transferred to HPLC injection vials or 96-well plates and 5 μL were injected into the LC-MS/MS system.
Noncompartmental pharmacokinetic analyses were performed using WinNonlin Professional (version 5.2) software (Pharsight, Cary, N.C.). The data were analyzed using the extravascular input model. For each subject, pharmacokinetic parameters were calculated individually as follows and then averaged. The maximum drug concentration in plasma, Cmax, and Tmax, the time to achieve Cmax, were calculated directly from the concentration-time curves. The area under the plasma concentration-time curve from hour 0 to the last measurable concentration in plasma, AUClast, was estimated by the linear trapezoidal rule. The area under the plasma concentration-time curve from hour 0 to infinity estimated using the following formula: AUCinf—obs=AUClast+Ct/Lambda_z, where Ct is the last measurable concentration in plasma, and Lambda_z is the terminal elimination rate constant estimated using log-linear regression during the terminal elimination phase. The number of points used in Lambda_z calculation was determined by visual inspection of the data describing the terminal phase and evaluation of the correlation coefficient associated with the regression line. T1/2, the terminal elimination half-life=ln(2)/Lambda_z. Mean residence time MRT, was calculated as following: MRT=(AUMCinf/AUCinf). Subcutaneous absorption bioavailability was calculated as the AUCinf following subcutaneous dosing divided by the AUCinf following intravenous dosing. Results were expressed as percentages.

male BALB/c mice = assay: Mobilization of polymorphonuclear leukocytes (PMNs) in mice; format: in vivo; settings: for Lymphocytes (×10^3 μl) Mean ± SD / PMNs (×10^3 μl) Mean ± SD: blood 3 hours after injection
Description: The effect of Compound 26 on mobilization of PMNs following subcutaneous administration was evaluated in mice. […] Louis, Mo.) was administered subcutaneously to 10 mice. […] Neutrophil and lymphocyte counts were determined using a Hemavet Model 950FS cell counter (Drew Scientific, Dallas, Tex.).

CXCR4 = target: T1, CXCR4 (Homo sapiens, UniProt P61073); assay: Calcium flux assay, agonist mode, Flexstation (CCRF-CEM cells); format: cell-based; settings: CCRF-CEM, percent of maximum response compared with SDF-1α, read-out: % Intrinsic Activity
T1 construct: CCRF-CEM cells, a human T-cell ALL line that endogenously expresses CXCR4; endogenous in cells; host or cells: CCRF-CEM (human T-cell acute lymphoblastic leukemia line)
T1 sequence (P61073 whole entry): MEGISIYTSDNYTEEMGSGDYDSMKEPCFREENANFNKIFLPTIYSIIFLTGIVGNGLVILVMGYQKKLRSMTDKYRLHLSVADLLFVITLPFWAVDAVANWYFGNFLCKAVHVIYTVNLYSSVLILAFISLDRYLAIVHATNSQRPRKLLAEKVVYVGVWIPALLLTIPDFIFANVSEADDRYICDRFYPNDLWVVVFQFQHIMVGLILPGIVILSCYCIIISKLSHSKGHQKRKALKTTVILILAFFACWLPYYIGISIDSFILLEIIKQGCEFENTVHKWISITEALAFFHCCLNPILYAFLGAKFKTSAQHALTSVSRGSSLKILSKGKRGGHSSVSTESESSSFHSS

Compound: c1cc(CN2CCCNCCNCCCNCC2)ccc1CN1CCCNCCNCCCNCC1 [AMD3100, reference compound]
Lymphocytes (×10^3 μl) Mean ± SD (male BALB/c mice; 6.66 μmol/kg subcutaneous): 8.76 ± 1.67 ×10^3 μl
PMNs (×10^3 μl) Mean ± SD (male BALB/c mice; 6.66 μmol/kg subcutaneous): 7.83 ± 3.20 ×10^3 μl

Compound: CCCCCCCCCCCCCCCC(=O)NCC(=O)NCC(=O)N[C@@H](Cc1ccc(O)cc1)C(=O)N[C@@H](CCC(N)=O)C(=O)N[C@@H](CCCCN)C(=O)N[C@@H](CCCCN)C(=O)N[C@@H](CC(C)C)C(=O)N[C@@H](CCCNC(=N)N)C(=O)N1CCC[C@@H]1C(=O)N[C@@H](Cc1c[nH]cn1)C(=O)N[C@H](C(=O)N[C@@H](CC(=O)O)C(=O)N[C@@H](CCCCN)C(=O)N[C@@H](Cc1ccc(O)cc1)C(=O)N[C@@H](CCCNC(=N)N)C(=O)N[C@@H](CC(C)C)C(N)=O)[C@@H](C)O [Compound 26] (Palmitoyl-GGYQKKLR[dP]HTDKYRL-NH2; C-terminus assumed)
Lymphocytes (×10^3 μl) Mean ± SD (male BALB/c mice; 0.2 μmol/kg subcutaneous): 4.39 ± 1.33 ×10^3 μl
PMNs (×10^3 μl) Mean ± SD (male BALB/c mice; 0.2 μmol/kg subcutaneous): 3.60 ± 1.89 ×10^3 μl
Lymphocytes (×10^3 μl) Mean ± SD (male BALB/c mice; 0.66 μmol/kg subcutaneous): 5.14 ± 2.22 ×10^3 μl
PMNs (×10^3 μl) Mean ± SD (male BALB/c mice; 0.66 μmol/kg subcutaneous): 5.03 ± 1.97 ×10^3 μl
Lymphocytes (×10^3 μl) Mean ± SD (male BALB/c mice; 2 μmol/kg subcutaneous): 4.15 ± 1.97 ×10^3 μl
PMNs (×10^3 μl) Mean ± SD (male BALB/c mice; 2 μmol/kg subcutaneous): 5.92 ± 1.73 ×10^3 μl
Lymphocytes (×10^3 μl) Mean ± SD (male BALB/c mice; 6.66 μmol/kg subcutaneous): 3.74 ± 2.12 ×10^3 μl
PMNs (×10^3 μl) Mean ± SD (male BALB/c mice; 6.66 μmol/kg subcutaneous): 7.11 ± 2.82 ×10^3 μl
release of bone marrow PMNs (in words) (male BALB/c mice; systemic, subcutaneous injection): acted as a functional antagonist to elicit release of bone marrow PMNs in a dose responsive fashion
Emax (CXCR4): 91.2%
bioavailability ([1]; mice, subcutaneous 2.5 μmol/kg, AUCinf subcutaneous divided by AUCinf intravenous, read-out: Bioavailability (%)): 88%
half-life ([1]; mice, single subcutaneous injection, 2.5 μmol/kg, read-out: Half-life elimination (converted)): 2.4 h
MRT inf ([1]; mice, single subcutaneous injection, 2.5 μmol/kg, read-out: MRT INFobs): 4.5 h
Tmax ([1]; mice, single subcutaneous injection, 2.5 μmol/kg, read-out: Tmax): 2 h
bioavailability following subcutaneous administration (comparison in words) ([1]; mice, subcutaneous): greater than that of compound 48

Compound: CCCCCCCCCCCCCCCC(=O)N[C@@H](COC)C(=O)NCC(=O)N[C@@H](Cc1ccc(O)cc1)C(=O)N[C@@H](CCC(N)=O)C(=O)N[C@@H](CCCCN)C(=O)N[C@@H](CCCCN)C(=O)N[C@@H](CC(C)C)C(=O)N[C@@H](CCCNC(=N)N)C(=O)N[C@@H](CO)C(=O)N[C@@H](COC)C(=O)N[C@H](C(=O)N[C@@H](CC(=O)O)C(=O)N[C@@H](CCCCN)C(=O)N[C@@H](Cc1ccc(O)cc1)C(=O)N[C@@H](CCCNC(=N)N)C(=O)N[C@@H](CC(C)C)C(N)=O)[C@@H](C)O [Compound 23] (Palmitoyl-S(Me)GYQKKLRSS(Me)TDKYRL-NH2)
Emax (CXCR4): 87.2%

Compound: CCCCCCCCCCCCCCCC(=O)N[C@@H](CCSC)C(=O)NCC(=O)N[C@@H](Cc1ccc(O)cc1)C(=O)N[C@@H](CCC(N)=O)C(=O)N[C@@H](CCCCN)C(=O)N[C@@H](CCCCN)C(=O)N[C@@H](CC(C)C)C(=O)N[C@@H](CCCNC(=N)N)C(=O)N[C@@H](CO)C(=O)N[C@@H](CCSC)C(=O)N[C@H](C(=O)N[C@@H](CC(=O)O)C(=O)N[C@@H](CCCCN)C(=O)N[C@@H](Cc1ccc(O)cc1)C(=O)N[C@@H](CCCNC(=N)N)C(=O)N[C@H](C(N)=O)C(C)C)[C@@H](C)O [Compound 11] (Palmitoyl-MGYQKKLRSMTDKYRV-NH2; C-terminus assumed)
Emax (CXCR4): 61.7%

Continued, values first:

bioavailability [1]: < 30%
MRT inf [1]: 2.6 h
Tmax [1]: 2 h
half-life [1]: 1.5 h
Compound: CCCCCCCCCCCCCCCC(=O)N[C@@H](CCSC)C(=O)NCC(=O)N[C@@H](Cc1ccc(O)cc1)C(=O)N[C@@H](CCC(N)=O)C(=O)N[C@@H](CCCCN)C(=O)N[C@@H](CCCCN)C(=O)N[C@@H](CC(C)C)C(=O)N[C@@H](CCCNC(=N)N)C(=O)N[C@@H](CO)C(=O)N[C@@H](CCSC)C(=O)N[C@H](C(=O)N[C@@H](CC(=O)O)C(=O)N[C@@H](CCCCN)C(=O)N[C@@H](Cc1ccc(O)cc1)C(=O)N[C@@H](CCCNC(=N)N)C(=O)N[C@@H](CC(C)C)C(N)=O)[C@@H](C)O [Compound 48] (Palmitoyl-MGYQKKLRSMTDKYRL-NH2)

Emax (CXCR4): 81.5%
Compound: CCCCCCCCCCCCCCCC(=O)N[C@@H](CCSC)C(=O)NCC(=O)N[C@@H](Cc1ccc(O)cc1)C(=O)N[C@@H](CCC(N)=O)C(=O)N[C@@H](CCCCN)C(=O)N[C@@H](CCCCN)C(=O)N[C@@H](CC(C)C)C(=O)N[C@@H](CCCNC(=N)N)C(=O)N[C@@H](CO)C(=O)N[C@@H](CCSC)C(=O)N[C@H](C(=O)N[C@@H](CC(=O)O)C(=O)N[C@@H](CCCCN)C(=O)N[C@@H](Cc1ccccc1)C(=O)N[C@@H](CCCNC(=N)N)C(=O)N[C@@H](CC(C)C)C(N)=O)[C@@H](C)O [Compound 15] (Palmitoyl-MGYQKKLRSMTDKFRL-NH2; C-terminus assumed)

Emax (CXCR4): 89.4%
Compound: CCCCCCCCCCCCCCCC(=O)NCC(=O)NCC(=O)N[C@@H](Cc1ccc(O)cc1)C(=O)N[C@@H](CCC(N)=O)C(=O)N[C@@H](CCCCN)C(=O)N[C@@H](CCCCN)C(=O)N[C@@H](CC(C)C)C(=O)N[C@@H](CCCNC(=N)N)C(=O)N1C[C@H](O)C[C@H]1C(=O)N[C@@H](Cc1c[nH]cn1)C(=O)N[C@H](C(=O)N[C@@H](CC(=O)O)C(=O)N[C@@H](CCCCN)C(=O)N[C@@H](Cc1ccc(O)cc1)C(=O)N[C@@H](CCCNC(=N)N)C(=O)N[C@@H](CC(C)C)C(N)=O)[C@@H](C)O [Compound 35] (Palmitoyl-GGYQKKLR[Hyp]HTDKYRL-NH2; C-terminus assumed)

Emax (CXCR4): 88%
Compound: CCCCCCCCCCCCCCCC(=O)N[C@@H](CCSC)C(=O)NCC(=O)N[C@@H](Cc1ccc(O)cc1)C(=O)N[C@@H](CCC(N)=O)C(=O)N[C@@H](CCCCN)C(=O)N[C@@H](CCCCN)C(=O)N[C@@H](CC(C)C)C(=O)N[C@@H](CCCNC(=N)N)C(=O)N1CCC[C@H]1C(=O)N[C@@H](CO)C(=O)N[C@@H](CCSC)C(=O)N[C@H](C(=O)N[C@@H](CC(=O)O)C(=O)N[C@@H](CCCCN)C(=O)N[C@@H](Cc1ccc(O)cc1)C(=O)N[C@@H](CCCNC(=N)N)C(=O)N[C@@H](CC(C)C)C(N)=O)[C@@H](C)O [Compound 8] (Palmitoyl-MGYQKKLRPSMTDKYRL-NH2; C-terminus assumed)

Emax (CXCR4): 62.7%
Compound: CCCCCCCCCCCCCCCC(=O)N[C@@H](CCSC)C(=O)NCC(=O)N[C@@H](Cc1ccc(O)cc1)C(=O)N[C@@H](CCC(N)=O)C(=O)N[C@@H](CCCCN)C(=O)N[C@@H](CCCCN)C(=O)N[C@@H](CC(C)C)C(=O)N[C@@H](CCCNC(=N)N)C(=O)N[C@@H](CO)C(=O)N[C@@H](CCCC)C(=O)N[C@H](C(=O)N[C@@H](CC(=O)O)C(=O)N[C@@H](CCCCN)C(=O)N[C@@H](Cc1ccc(O)cc1)C(=O)N[C@@H](CCCNC(=N)N)C(=O)N[C@@H](CC(C)C)C(N)=O)[C@@H](C)O [Compound 17] (Palmitoyl-MGYQKKLRS[Nle]TDKYRL-NH2; C-terminus assumed)

Emax (CXCR4): 86.8%
Compound: CCCCCCCCCCCCCCCC(=O)NCC(=O)NCC(=O)N[C@@H](Cc1ccc(O)cc1)C(=O)N[C@@H](CCC(N)=O)C(=O)N[C@@H](CCCCN)C(=O)N[C@@H](CCCCN)C(=O)N[C@@H](Cc1c[nH]cn1)C(=O)N[C@@H](CCCNC(=N)N)C(=O)N[C@@H](CO)C(=O)N[C@@H](C)C(=O)N[C@H](C(=O)N[C@@H](CC(=O)O)C(=O)N[C@@H](CCCCN)C(=O)N[C@@H](Cc1ccc(O)cc1)C(=O)N[C@@H](CCCNC(=N)N)C(=O)N[C@@H](CC(C)C)C(N)=O)[C@@H](C)O [Compound 38] (Palmitoyl-GGYQKKHRSATDKYRL-NH2; C-terminus assumed)
